Test results taken from US6987114B1, “Antiviral pyrimidinedione derivatives and process for the preparation thereof” (Samjin Pharmaceutical Co., Ltd, priority 1999, dated 2006).
Converted amounts (≈) assume the structure as drawn. Read-outs that look alike come from different tables or passages of the source.

What was measured:
[1] = test system: mock-infected MT-4 cells; assay: Cytotoxicity based on viability of mock-infected host cells (MTT method); assay type: cell-based; conditions: mock-infected MT-4 cells, MTT method, 4 or 5 days at 37° C.
Procedure, shortened: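 Mock-infected MT-4 cells at 2.5×10^5 cells/ml were exposed to various concentrations of test compound, run in parallel with HIV-infected (1000 CCID50) cultures. After 4 or 5 days at 37° C., host-cell viability was read by MTT.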

[2] = test system: HIV; assay: microbe, parasite or virus in culture; assay type: cell-based
Procedure, shortened: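 MT-4 cells (2.5×10^5 cells/ml) infected with 1000 CCID50 HIV, added at once to compound dilutions, incubated 4 or 5 days at 37° C. Protection from virus-induced cytopathic effect read by MTT; cytotoxicity from MTT viability of mock-infected cells in parallel.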

[3] = Human immunodeficiency virus 1, MT4, read-out: ED50
[4] = Human immunodeficiency virus 1, MT4, HIV-infected MT-4 cells, MTT method, 4 or 5 days at 37° C., read-out: ED50 (the source's name)

With `CCc1c(Oc2cc(C)cc(C)c2)n(Cc2cc(C)cc(C)c2)c(=O)[nH]c1=O` [Example 51, 1-(3,5-Dimethylbenzyl)-5-ethyl-6-(3,5-dimethylphenoxy)-2,4-pyrimidinedione] the melting point was 130 to 132 °C, the CD50 [1] was 8.01 µg/mL and the EC50 [2, 3] was 0.13 µg/mL (≈ 0.343 µM).

In the case of `Cc1cc(C)cc(Oc2c(C(C)C)c(=O)[nH]c(=O)n2Cc2ccccc2C#N)c1` [Example 40, 1-(2-Cyanobenzyl)-5-isopropyl-6-(3,5-dimethylphenoxy)-2,4-pyrimidinedione], the melting point is reported as 276 to 278 °C, the CD50 [1] is reported as >100.00 µg/mL and the EC50 [2, 4] is reported as > 100 µg/mL.

In the case of `CCc1c(C(=O)c2cc(C)cc(C)c2)n(Cc2c3ccccc3cc3ccccc23)c(=O)[nH]c1=O` [Example 101, 1-(Anthracen-9-ylmethyl)-5-ethyl-6-(3,5-dimethyl-benzoyl)-2,4-pyrimidinedione], the melting point is reported as 270 to 272 °C, the CD50 [1] is reported as 0.94 µg/mL and the EC50 [2, 3] is reported as > 0.94 µg/mL.

In the case of `CCc1c(C(=O)c2cc(C)cc(C)c2)n(Cc2ccc(OC(F)(F)F)cc2)c(=O)[nH]c1=O` [Example 35, 1-(4-Trifluoromethoxybenzyl)-5-ethyl-6-(3,5-dimethylbenzoyl)-2,4-pyrimidinedione], the melting point is reported as 155 to 157 °C, the CD50 [1] is reported as 33.83 µg/mL and the EC50 [2, 4] is reported as 0.004 µg/mL (≈ 0.00896 µM).

`Cc1cc(C)cc(Sc2c(C(C)C)c(=O)[nH]c(=O)n2Cc2cccc(C#N)c2)c1` [Example 44, 1-(3-Cyanobenzyl)-5-isopropyl-6-(3,5-dimethylphenyl)thio-2,4-pyrimidinedione] showed a melting point of 186 to 188 °C, a CD50 [1] of 8.88 µg/mL and an EC50 [2, 3] of 0.008 µg/mL (≈ 0.0197 µM).

`CCc1c(Oc2cc(C)cc(C)c2)n(Cc2cccc(Br)n2)c(=O)[nH]c1=O` [Example 127, 1-(2-Bromopyridin-6-ylmethyl)-5-ethyl-6-(3,5-dimethylphenoxy)-2,4-pyrimidinedione] showed a melting point of 201 to 203 °C, a CD50 [1] of 9.46 µg/mL and an EC50 [2, 4] of 0.194 µg/mL (≈ 0.451 µM).

For `CCc1c(Sc2cc(C)cc(C)c2)n(Cc2cc(C(F)(F)F)cc(C(F)(F)F)c2)c(=O)[nH]c1=O` [Example 61, 1-[3,5-Bis(trifluoromethyl)benzyl]-5-ethyl-6-(3,5-dimethyl-phenyl)thio-2,4-pyrimidinedione], the melting point was 212 to 213 °C, the CD50 [1] was >100.00 µg/mL and the EC50 [2, 4] was > 100 µg/mL.

In the case of `CCc1c(Oc2cc(C)cc(C)c2)n(Cc2ccccn2)c(=O)[nH]c1=O` [Example 111, 1-(Pyridin-2-ylmethyl)-5-ethyl-6-(3,5-dimethylphenoxy)-2,4-pyrimidinedione], the melting point is reported as 215 to 217 °C, the CD50 [1] is reported as >100.00 µg/mL and the EC50 [2, 4] is reported as 0.081 µg/mL (≈ 0.231 µM).

With `CCc1c(C(=O)c2cc(C)cc(C)c2)n(Cc2cc(OC)cc(OC)c2)c(=O)[nH]c1=O` [Example 59, 1-(3,5-Dimethoxybenzyl)-5-ethyl-6-(3,5-dimethylbenzoyl)-2,4-pyrimidinedione] the melting point was 208 to 210 °C, the CD50 [1] was 69.00 µg/mL and the EC50 [2, 4] was 0.31 µg/mL (≈ 0.734 µM).

For `Cc1cc(C)cc(Oc2c(C(C)C)c(=O)[nH]c(=O)n2Cc2cc(C(F)(F)F)cc(C(F)(F)F)c2)c1` [Example 64, 1-[3,5-Bis(Trifluoromethyl)benzyl]-5-isopropyl-6-(3,5-dimethylphenoxy)-2,4-pyrimidinedione], the melting point was 182 to 183 °C, the CD50 [1] was >100.00 µg/mL and the EC50 [2, 4] was > 100 µg/mL.

With `CCc1c(Sc2cc(C)cc(C)c2)n(Cc2cc(F)cc(F)c2)c(=O)[nH]c1=O` [Example 73, 1-(3,5-Difluorobenzyl)-5-ethyl-6-(3,5-dimethylphenyl)thio-2,4-pyrimidinedione] the melting point was 219 to 221 °C, the CD50 [1] was >100.00 µg/mL and the EC50 [2, 4] was 0.016 µg/mL (≈ 0.0398 µM).

In the case of `Cc1cc(C)cc(C(=O)c2c(C(C)C)c(=O)[nH]c(=O)n2CC2CC2)c1` [Example 6, 1-(Cyclopropyl)methyl-5-isopropyl-6-(3,5-dimethylbenzoyl)-2,4-pyrimidinedione], the melting point is reported as 193 to 195 °C, the CD50 [1] is reported as 8.5 µg/mL and the EC50 [2, 4] is reported as 0.0022 µg/mL (≈ 0.00646 µM).

With `Cc1cc(C)cc(Oc2c(C(C)C)c(=O)[nH]c(=O)n2CC2CC2)c1` [Example 4, 1-(Cyclopropyl)methyl-5-isopropyl-6-(3,5-dimethylphenoxy)-2,4-pyrimidinedione] the melting point was 146 to 148 °C, the CD50 [1] was 12.70 µg/mL and the EC50 [2, 4] was < 0.0002 µg/mL.

`CCc1c(Sc2cc(C)cc(C)c2)n(Cc2cccc(OC)c2)c(=O)[nH]c1=O` [Example 25, 1-(3-Methoxybenzyl)-5-ethyl-6-(3,5-dimethylphenyl)thio-2,4-pyrimidinedione] gave a melting point of 130 to 131 °C, a CD50 [1] of 9.04 µg/mL and an EC50 [2, 4] of 0.003 µg/mL (≈ 0.00757 µM).

With `CCc1c(Sc2cc(C)cc(C)c2)n(Cc2cccc(Cl)n2)c(=O)[nH]c1=O` [Example 121, 1-(2-Chloropyridin-6-ylmethyl)-5-ethyl-6-(3,5-dimethyl-phenyl)thio-2,4-pyrimidinedione] the melting point was 145 to 148 °C, the CD50 [1] was 7.72 µg/mL and the EC50 [2, 4] was > 7.72 µg/mL.

For `CCc1c(Oc2cc(C)cc(C)c2)n(Cc2cc(F)cc(F)c2)c(=O)[nH]c1=O` [Example 75, 1-(3,5-Difluorobenzyl)-5-ethyl-6-(3,5-dimethylphenoxy)-2,4-pyrimidinedione], the melting point was 178 to 180 °C, the CD50 [1] was 14.30 µg/mL and the EC50 [2, 4] was > 14.3 µg/mL.

For `CCc1c(Oc2cc(C)cc(C)c2)n(Cc2cccnc2)c(=O)[nH]c1=O` [Example 117, 1-(Pyridin-3-ylmethyl)-5-ethyl-6-(3,5-dimethylphenoxy)-2,4-pyrimidinedione], the melting point was 230 to 232 °C, the CD50 [1] was 40.20 µg/mL and the EC50 [2, 3] was 0.061 µg/mL (≈ 0.174 µM).

`CCc1c(Oc2cc(C)cc(C)c2)n(Cc2ccc3c(c2)C(=O)c2ccccc2C3=O)c(=O)[nH]c1=O` [Example 105, 1-(Anthraquinon-2-ylmethyl)-5-ethyl-6-(3,5-dimethylphenoxy)-2,4-pyrimidinedione] showed a melting point of 233 to 235 °C, a CD50 [1] of 5.30 µg/mL and an EC50 [2, 4] of 0.52 µg/mL (≈ 1.08 µM).

In the case of `Cc1cc(C)cc(Oc2c(C(C)C)c(=O)[nH]c(=O)n2Cc2cc(F)cc(F)c2)c1` [Example 76, 1-(3,5-Difluorobenzyl)-5-isopropyl-6-(3,5-dimethylphenoxy)-2,4-pyrimidinedione], the melting point is reported as 186 to 189 °C, the CD50 [1] is reported as 12.10 µg/mL and the EC50 [2, 4] is reported as 0.022 µg/mL (≈ 0.0549 µM).

For `COC(=O)c1ccoc1Cn1c(Oc2cc(C)cc(C)c2)c(C(C)C)c(=O)[nH]c1=O` [Example 154, 1-(3-Methoxycarbonyl-2-furanylmethyl)-5-isopropyl-6-(3,5-dimethylphenoxy)-2,4-pyrimidinedione], the melting point was 157 to 159 °C, the CD50 [1] was 10.11 µg/mL and the EC50 [2, 4] was 0.074 µg/mL (≈ 0.179 µM).

With `Cc1cc(C)cc(Sc2c(C(C)C)c(=O)[nH]c(=O)n2Cc2cccc(Cl)n2)c1` [Example 122, 1-(2-Chloropyridin-6-ylmethyl)-5-isopropyl-6-(3,5-dimethylphenyl)thio-2,4-pyrimidinedione] the melting point was 159 to 161 °C, the CD50 [1] was 2.80 µg/mL and the EC50 [2, 4] was > 2.8 µg/mL.

In the case of `Cc1cc(C)cc(Oc2c(C(C)C)c(=O)[nH]c(=O)n2Cc2c3ccccc3cc3ccccc23)c1` [Example 100, 1-(Anthracen-9-ylmethyl)-5-isopropyl-6-(3,5-dimethyl-phenoxy)-2,4-pyrimidinedione], the melting point is reported as 224 to 226 °C, the CD50 [1] is reported as 2.02 µg/mL and the EC50 [2, 3] is reported as > 2.02 µg/mL.

With `CCc1c(C(=O)c2cc(C)cc(C)c2)n(Cc2cc(F)cc(F)c2)c(=O)[nH]c1=O` [Example 77, 1-(3,5-Difluorobenzyl)-5-ethyl-6-(3,5-dimethylbenzoyl)-2,4-pyrimidinedione] the melting point was 165 to 167 °C, the CD50 [1] was 7.0 µg/mL and the EC50 [2, 4] was 0.003 µg/mL (≈ 0.00753 µM).

With `CCc1c(C(=O)c2cc(C)cc(C)c2)n(CC2CCC2)c(=O)[nH]c1=O` [Example 11, 1-(Cyclobutyl)methyl-5-ethyl-6-(3,5-dimethylbenzoyl)-2,4-pyrimidinedione] the melting point was 200 to 202 °C, the CD50 [1] was 89.1 µg/mL and the EC50 [2, 4] was 0.0027 µg/mL (≈ 0.00793 µM).

`CCc1c(C(=O)c2cc(C)cc(C)c2)n(Cc2nc3ccccc3o2)c(=O)[nH]c1=O` [Example 149, 1-(Benzoxazol-2-ylmethyl)-5-ethyl-6-(3,5-dimethyl-benzoyl)-2,4-pyrimidinedione] gave a melting point of 218 to 220 °C, a CD50 [1] of 6.78 µg/mL and an EC50 [2, 3] of 0.029 µg/mL (≈ 0.0719 µM).

For `CCc1c(C(=O)c2cc(C)cc(C)c2)n(Cc2ccc3ccccc3n2)c(=O)[nH]c1=O` [Example 135, 1-(Quinolin-2-ylmethyl)-5-ethyl-6-(3,5-dimethylbenzoyl)-2,4-pyrimidinedione], the melting point was 218 to 220 °C, the CD50 [1] was 6.80 µg/mL and the EC50 [2, 4] was 0.0089 µg/mL (≈ 0.0215 µM).

In the case of `Cc1cc(C)cc(Sc2c(C(C)C)c(=O)[nH]c(=O)n2Cc2ccc3ccccc3n2)c1` [Example 132, 1-(Quinolin-2-ylmethyl)-5-isopropyl-6-(3,5-dimethylphenyl)thio-2,4-pyrimidinedione], the melting point is reported as 181 to 183 °C, the CD50 [1] is reported as 9.60 µg/mL and the EC50 [2, 4] is reported as > 9.58 µg/mL.

With `CCc1c(C(=O)c2cc(C)cc(C)c2)n(CC2CCCCC2)c(=O)[nH]c1=O` [Example 17, 1-(Cyclohexyl)methyl-5-ethyl-6-(3,5-dimethylbenzoyl)-2,4-pyrimidinedione] the melting point was 177 to 179 °C, the CD50 [1] was 7.10 µg/mL and the EC50 [2, 3] was 0.013 µg/mL (≈ 0.0353 µM).

With `CCc1c(C(=O)c2cc(C)cc(C)c2)n(Cc2ccccn2)c(=O)[nH]c1=O` [Example 113, 1-(Pyridin-2-ylmethyl)-5-ethyl-6-(3,5-dimethylbenzoyl)-2,4-pyrimidinedione] the melting point was 153 to 155 °C, the CD50 [1] was 32.80 µg/mL and the EC50 [2, 4] was 0.0084 µg/mL (≈ 0.0231 µM).

`COc1cc(Cn2c(C(=O)c3cc(C)cc(C)c3)c(C(C)C)c(=O)[nH]c2=O)cc(OC)c1` [Example 60, 1-(3,5-Dimethoxybenzyl)-5-isopropyl-6-(3,5-dimethyl-benzoyl)-2,4-pyrimidinedione] showed a melting point of 220 to 222 °C, a CD50 [1] of 12.09 µg/mL and an EC50 [2, 4] of 0.23 µg/mL (≈ 0.527 µM).
